# Measurements reported in paper PMC7407491, “The Addition of a Synthetic LPS-Targeting Domain Improves Serum Stability While Maintaining Antimicrobial, Antibiofilm, and Cell Stimulating Properties of an Antimicrobial Peptide” (Biomolecules, 2020).
# Bridge positions count the residues as written; N and C are the ends. Peptide text beside a SMILES is read from it.
# What was measured:
# Escherichia coli = assay type: cell-based; conditions: 2 h, pH 7
# Experimental: (§1) Veterinary clinical isolates, including Salmonella typhimurium, multi-drug resistant Escherichia coli, methicillin-resistant Staphylococcus aureus (MRSA), and methicillin-resistant Staphylococcus pseudointermedius (MRSP), were kindly provided by Dr. H. Cai (Department of Pathobiology, University of Guelph, ON, Canada). An antibiogram for these strains is available in the supplementary text (Table S1). Gram-negative strains were cultured in Luria−Bertani (LB) broth. Gram-positive strains were cultured in Tryptic soy broth (TSB). Both cultures were grown under aerobic conditions at 37 °C.
# (§2) The minimum bactericidal concentration (MBC) of SynPG-1 against the tested pathogens was identified through a broth macrodilution antimicrobial assay as previously described, with some modification. […] The buffer volume was adjusted to accommodate the addition of SynPG-1 and PG-1 so that the final solution volume was 0.5 mL for each tested concentration. Final peptide concentrations ranged from 0.1 µg/mL to 8 µg/mL. PG-1 at the known MBC (2 µg/mL E. coli; 4 µg/mL S. typhimurium; 0.5 µg/mL MRSP; 0.5 µg/mL MRSA) was considered the in-house positive control, while the suspension containing no peptide was considered the negative control. Experimental and control tubes were incubated for 2 h at 37 °C without shaking to allow for bactericidal action to occur. […] Colony numbers from each plate were recorded. […]
# MRSA = assay type: cell-based, Methicillin-resistant Staphylococcus aureus; conditions: 2 h, pH 7
# Experimental: as §1, §2
# [1] = test system: pre-formed S. typhimurium biofilm; test: Pre-formed biofilm destruction assay, crystal violet; assay type: cell-based, Salmonella typhimurium; conditions: 48 h pre-formed biofilm, 3 h peptide treatment 37 °C, crystal violet OD 590 nm; p < 0.05 vs control; three independent experiments, n = 6
# Experimental: To test the destruction of preformed biofilms, in a 96-well plate, 15 µL of overnight culture, of either E. coli, S. typhimurium, or MRSA, was added to 150 µL of minimal salt media (40 mM […]; 22 mM KH2PO4; […] NH4CL; 740 mM NaCl; 2 mM MgSO4; 0.1 mM CaCl2; 22 mM supplemented with D-Glucose) in each well. Plates were placed in a static incubator at 37 °C for 48 h; the time required for untreated wells to form biofilm. After formation, minimal salt media was removed and wells were treated with 155 µL of minimal salt media containing PG-1 or SynPG-1. […] Plates were placed in a static incubator at 37 °C for 3 h. After 3 h, treated media was removed and wells were rinsed with 155 µL of PBS to remove planktonic cells. After sufficient drying of wells, 150 µL of 0.1% crystal violet stain was added to each well and incubated at room temperature for 30 min, after which dye was removed and wells were rinsed again with 155 µL of PBS. After sufficient drying of wells, 150 µL of 70% ethanol solution was added to each well and incubated at room temperature for 30 min. After 30 min, 100 µL of each well was added to a new 96-well plate and absorbance was measured at an OD of 590 nm.
# S. typhimurium biofilm = test: Enumeration of viable cells after biofilm inhibition; assay type: cell-based, Salmonella typhimurium; conditions: 4 µg/mL, 48 h biofilm formation, CFU plated
# Experimental: In order to investigate whether prevention or degradation of biofilm by peptide treatment impacted bacterial cell growth within the biofilm, an enumeration assay was carried out. The following protocol was developed using methods described in the work by Wilson et al.. Briefly, in separate 15 mL culture tubes, 20 µL of overnight culture of either E. coli, S. typhimurium, or MRSA were added to 1 mL of minimal salt media (40 mM […]; 22 mM KH2PO4; […] NH4CL; 740 mM NaCl; 2 mM MgSO4; 0.1 mM CaCl2; 22 mM supplemented with D-Glucose) and treated with PG-1 or SynPG-1. Due to the laborious procedure, the study was limited to measuring cell viability for only two concentrations, basing the choice on the highest significant reduction of biomass from crystal violet staining for each strain. […] These concentrations were chosen for the enumeration assay. In instances where no substantial reduction was seen, as in the case of E. coli, the highest tested biomass concentration, or higher, was chosen to confirm the lack of activity on viability. […] Tubes were placed in a static incubator at 37 °C for 48 h; the time required for untreated wells to form biofilm. After 48 h, treated media was removed and wells were rinsed with 1 mL of PBS to remove planktonic cells. […] CFU was recorded. […]
# [2] = 25% porcine intestinal fluid (pH 6.5) in PBS, 1 mg/mL peptide, 1 h 37 °C with shaking; residual activity vs E. coli at 20 µg/mL, colony count; three independent experiments
# Experimental: Porcine digestive fluids were collected, as previously described by Wang et al. [44]. […] The gastrointestinal tract was kept at 4 °C during dissection, and collection of contents from the stomach and upper small intestine (duodenum and jejunum) was conducted within 5 h of sacrifice. Contents were centrifuged at 10,000 rpm (9600× g) for 10 min at 4 °C, and supernatant fluid was collected and stored at −80 °C until its use in the stability experiment. The pH of the collected supernatants were 3.5 and 6.5 for gastric fluid and duodenum fluid, respectively.
# Procedures similar to those used by Egger et al. [45] were used for this experiment. […] Suspension containing no peptide was considered the negative control. After incubation, 10 µL of the incubated solutions was added for a total volume of 0.5 mL, consisting of 20 µL of mid-logarithmic phase E. coli cells, diluted to a concentration of about 1 × 10^5 CFU/mL, and 470 µL of 20 mM sodium phosphate buffer (pH 7). […] Stability in porcine digestive fluid was evaluated as the relative colony growth on plates from bacterial grown with digestive fluid and peptide treatments, in comparison to plates grown from bacteria grown with digestive fluid alone.
# Stability was evaluated by comparing the mean growth of colonies on plates treated with peptides incubated in digestive fluids to colonies grown when treated without peptide. […]
# MRSA biofilm = test: Biofilm inhibition assay, crystal violet; assay type: cell-based, Methicillin-resistant Staphylococcus aureus; conditions: minimal salt media, 48 h 37 °C static, crystal violet OD 590 nm; p < 0.05 vs control; concentration dependent
# Experimental: Plates were placed in a static incubator at 37 °C for 48 h; the time required for untreated wells to form biofilm. After incubation, treated media was removed and wells were rinsed with 155 µL of PBS to remove planktonic cells. After sufficient air drying of wells, 150 µL of 0.1% Crystal violet stain was added to each well and incubated at room temperature for 30 min, after which, dye was removed and wells were rinsed again with 155 µL of PBS. After sufficient drying of wells, 150 µL of 70% ethanol solution was added to each well and incubated at room temperature for 30 min. After 30 min, 100 µL of each well was added to a new 96-well plate and absorbance was measured at an OD of 590 nm.
# MRSP = assay type: cell-based, Methicillin-resistant Staphylococcus pseudointermedius; conditions: 2 h, pH 7
# Experimental: as §1, §2
smiles,measurement,setting,value
"CC[C@H](C)[C@H](NC(=O)[C@H](CCCCN)NC(=O)[C@H](CCCNC(=N)N)NC(=O)[C@H](CC(C)C)NC(=O)[C@H](CC(C)C)NC(=O)[C@H](CCCNC(=N)N)NC(=O)[C@H](CCCNC(=N)N)NC(=O)[C@H](CC(C)C)NC(=O)CN)C(=O)N[C@@H](CCCNC(=N)N)C(=O)NCC(=O)N[C@@H](CCCNC(=N)N)C(=O)N[C@@H](Cc1c[nH]c2ccccc12)C(=O)N[C@@H](CCCCN)C(=O)NCC(=O)NCC(=O)NCC(=O)N[C@@H](CCCNC(=N)N)C(=O)NCC(=O)NCC(=O)N[C@@H](CCCNC(=N)N)C(=O)N[C@@H](CC(C)C)C(=O)N[C@H]1CSSC[C@@H](C(=O)N[C@H](C(=O)NCC(=O)N[C@@H](CCCNC(=N)N)C(=O)O)C(C)C)NC(=O)[C@H](C(C)C)NC(=O)[C@@H]2CSSC[C@H](NC(=O)[C@H](Cc3ccc(O)cc3)NC1=O)C(=O)N[C@@H](CCCNC(=N)N)C(=O)N[C@@H](CCCNC(=N)N)C(=O)N[C@@H](CCCNC(=N)N)C(=O)N[C@@H](Cc1ccccc1)C(=O)N2 [SynPG-1, Syn-Protegrin-1] (H-GLRRLLRKIRGRWKGGGRGGRLCYCRRRFCVCVGR-OH; disulfide 23-32, 25-30; N-terminus and C-terminus assumed)",MBC,Escherichia coli,2 µg/mL
same,MBC,MRSA,0.5 (0.09) μg/mL
same,Concentration with significant disruption of pre-formed biofilm,[1],8 µg/mL
same,Reduction of mean % growth of control compared with PG-1,S. typhimurium biofilm,significantly lower reduction of mean % growth of control
same,Antimicrobial activity after incubation in 25% porcine intestinal fluid,[2],mean % growth of control increased
same,Concentration at which inhibition of biofilm formation was seen,MRSA biofilm,2 µg/mL
same,MBC,MRSP,0.5 (0.09) μg/mL
